From publication doi:10.1101/2023.12.04.569845, “Identification of 4-(6-((2-methoxyphenyl)amino)pyrazin-2-yl)benzoic acids as CSNK2A inhibitors with antiviral activity and improved selectivity over PIM3” (bioRxiv, 2023)
Like-named read-outs stand apart in the source and are kept apart here. Each block holds one compound with its values, some of them ahead of it.

Tests used:
Experiment in all cases: biochemical
Set-up in all cases: Thermal shift (DSF, SYPRO Orange) Tm shift of recombinant kinase domains at 10 uM compound
BMX = target: T1, BMX (Homo sapiens, UniProt P51813)
T1 sequence (P51813 1-675): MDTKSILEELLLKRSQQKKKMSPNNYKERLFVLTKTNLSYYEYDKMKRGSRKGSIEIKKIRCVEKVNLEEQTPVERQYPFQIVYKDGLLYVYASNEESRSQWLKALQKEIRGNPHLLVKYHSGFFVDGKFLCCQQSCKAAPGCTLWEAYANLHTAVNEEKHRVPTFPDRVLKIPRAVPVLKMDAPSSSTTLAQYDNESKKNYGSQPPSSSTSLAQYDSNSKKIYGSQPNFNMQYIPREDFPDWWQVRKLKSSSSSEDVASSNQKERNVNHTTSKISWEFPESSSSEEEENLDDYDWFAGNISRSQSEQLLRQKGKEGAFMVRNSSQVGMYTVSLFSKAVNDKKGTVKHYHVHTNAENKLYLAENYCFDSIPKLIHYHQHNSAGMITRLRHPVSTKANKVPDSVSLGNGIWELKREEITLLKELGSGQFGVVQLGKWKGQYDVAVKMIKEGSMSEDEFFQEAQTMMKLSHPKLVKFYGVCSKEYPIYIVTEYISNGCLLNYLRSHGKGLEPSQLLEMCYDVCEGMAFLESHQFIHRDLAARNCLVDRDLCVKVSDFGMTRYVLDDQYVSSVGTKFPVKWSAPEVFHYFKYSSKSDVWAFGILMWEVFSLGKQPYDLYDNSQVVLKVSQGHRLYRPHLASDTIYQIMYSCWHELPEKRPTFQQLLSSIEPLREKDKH

STLK3 = target: T2, STLK3 (Homo sapiens, UniProt Q9UEW8)
T2 construct: gene STK39

MAPK15 = target: T3, MAPK15 (Homo sapiens, UniProt Q8TD08)
T3 sequence (Q8TD08 1-544): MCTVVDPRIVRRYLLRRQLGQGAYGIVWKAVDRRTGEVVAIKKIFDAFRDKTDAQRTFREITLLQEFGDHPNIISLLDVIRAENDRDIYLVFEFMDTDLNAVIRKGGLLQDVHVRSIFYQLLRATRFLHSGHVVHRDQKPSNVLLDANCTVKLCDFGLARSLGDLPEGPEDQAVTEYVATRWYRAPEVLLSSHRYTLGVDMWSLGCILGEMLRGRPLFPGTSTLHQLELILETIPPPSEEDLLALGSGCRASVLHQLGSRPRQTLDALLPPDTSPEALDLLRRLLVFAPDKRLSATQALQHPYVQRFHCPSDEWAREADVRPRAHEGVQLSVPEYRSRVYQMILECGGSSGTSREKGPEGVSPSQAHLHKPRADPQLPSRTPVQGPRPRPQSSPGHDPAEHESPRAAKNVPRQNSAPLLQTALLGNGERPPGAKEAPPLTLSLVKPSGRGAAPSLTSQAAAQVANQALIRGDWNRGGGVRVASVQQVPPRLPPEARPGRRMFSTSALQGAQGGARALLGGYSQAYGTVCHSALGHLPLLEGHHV

PLK4 = target: T4, PLK4 (Homo sapiens, UniProt O00444)
T4 sequence (O00444 1-970): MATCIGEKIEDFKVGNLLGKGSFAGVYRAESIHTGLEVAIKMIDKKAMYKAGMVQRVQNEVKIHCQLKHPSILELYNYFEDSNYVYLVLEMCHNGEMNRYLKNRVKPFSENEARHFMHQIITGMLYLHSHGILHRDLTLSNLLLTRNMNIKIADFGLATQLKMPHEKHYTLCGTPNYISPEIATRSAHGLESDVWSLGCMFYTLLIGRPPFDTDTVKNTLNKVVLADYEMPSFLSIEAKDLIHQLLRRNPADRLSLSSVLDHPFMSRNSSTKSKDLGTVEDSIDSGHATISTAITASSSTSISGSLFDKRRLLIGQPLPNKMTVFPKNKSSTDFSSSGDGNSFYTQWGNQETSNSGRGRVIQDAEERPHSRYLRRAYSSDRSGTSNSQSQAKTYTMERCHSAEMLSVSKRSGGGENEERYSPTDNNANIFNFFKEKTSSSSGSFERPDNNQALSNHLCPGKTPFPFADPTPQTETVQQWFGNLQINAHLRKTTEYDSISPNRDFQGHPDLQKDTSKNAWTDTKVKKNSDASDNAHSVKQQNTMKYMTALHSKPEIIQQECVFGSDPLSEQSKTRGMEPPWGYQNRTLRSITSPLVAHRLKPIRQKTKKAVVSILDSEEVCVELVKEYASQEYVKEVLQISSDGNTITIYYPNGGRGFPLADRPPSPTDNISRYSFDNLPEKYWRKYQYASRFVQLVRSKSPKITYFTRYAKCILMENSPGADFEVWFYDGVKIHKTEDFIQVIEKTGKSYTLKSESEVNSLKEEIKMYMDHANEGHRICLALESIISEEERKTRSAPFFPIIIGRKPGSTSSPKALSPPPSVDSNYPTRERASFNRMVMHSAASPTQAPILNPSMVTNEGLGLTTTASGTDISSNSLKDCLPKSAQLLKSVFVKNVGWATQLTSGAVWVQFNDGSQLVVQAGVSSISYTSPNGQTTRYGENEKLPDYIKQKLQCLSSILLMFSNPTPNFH

ΔTm at 10 µM (BMX; read-out: 7c): 1 °C | ΔTm at 10 µM (STLK3; read-out: 7c): 0 °C | ΔTm at 10 µM (PLK4; read-out: 7c): 6 °C
Compound: COc1ccc(OC(C)C)cc1Nc1cncc(-c2ccc(C(=O)O)cc2)n1 [7c]
ΔTm at 10 µM (MAPK15; read-out: 7c): 10 °C

ΔTm at 10 µM (BMX; read-out: 6c): 2 °C | ΔTm at 10 µM (STLK3; read-out: 6c): 0 °C | ΔTm at 10 µM (PLK4; read-out: 6c): 10 °C
Compound: CC(C)Oc1ccc2ccn(-c3cncc(-c4ccc(C(=O)O)cc4)n3)c2c1 [6c]
ΔTm at 10 µM (MAPK15; read-out: 6c): 15 °C

ΔTm at 10 µM (BMX; read-out: 2): 3 °C | ΔTm at 10 µM (STLK3; read-out: 2): 1 °C | ΔTm at 10 µM (PLK4; read-out: 2): 11 °C
Compound: CC(C)Nc1ccc2cnn(-c3cncc(-c4ccc(C(=O)O)cc4)n3)c2c1 [compound 2, 2]
ΔTm at 10 µM (MAPK15; read-out: 2): 12 °C
